Data on seven compounds can be found in patent publication US12612406B2, “Cytisine salts” (Achieve Pharma UK Limited, priority 2017, dated 2026).

Data set [1] is described as follows: Screening of cytisine salt formation with acid salt formers. To be noted: equimolar acid, 40° C. one hour, cooled to ambient. In kind it is physicochemical. The protocol:
Stock solutions of acid salt formers were prepared in the carrier solvents and having the molarities detailed in the following Table 1 below:
Stock solutions of cytisine API (non-synthetic) were also prepared in CH3CN and in Me-THF. 2.4 g of cytisine was dissolved in 60 ml of 2-Me-THF heated to a temperature of 60° C. 2.4 g of cytisine was dissolved in 24 ml of CH3CN heated to a temperature of 40° C.
200 ml capacity tubes heated to 40° C. were charged with 2 ml or 5 ml of the cytisine stock solution. The acid stock solutions were then added to the heated tubes in equimolar amounts. The solutions were held at 40° C. for one hour and then allowed to cool to ambient temperature (˜18° C.) for 18 hours.
Filtration of the obtained solids was then carried out using a PTFE fritted column and the obtained solids were dried at 50° C. for 48 hours. The properties of the obtained products were then analysed, and the outcome of this screen and the properties of the obtained products are summarised in Table 2 below: […]

Data set [2] can be described thus: Lactose compatibility: stability of cytisine and cytisine salts with lactose on storage, cytisine by HPLC. In kind it is physicochemical. To be noted: 25° C./60% RH and 40° C./75% RH, 7 and 14 days. The method, then: The stability of formulations of cytisine and the present cytisine salts with lactose was investigated. Samples were stored at 25° C. and 60% relative humidity (RH) and at 40° C. and 75% RH and evaluated after 7 and 14 days. […] Thus, these salts effectively improve the stability of cytisine and facilitates its formulation with compositions comprising lactose.

On to `O=C(O)c1cc(O)ccc1O.O=c1cccc2n1C[C@@H]1CNC[C@H]2C1` [Gentisate, Cytisine Gentisate], for which the “Assessment (salt preparation)” value in data set [1] (API stock solution in 2-MeTHF) and in data set [1] (API stock solution in CH3CN) was “Excellent salt profile” in each case. In addition, the “Degradation rate of cytisine compared with free base form” value in data set [2] is on record as “degraded at a substantially lower rate”.
As for Glucuronate, the “Assessment (salt preparation)” value in data set [1] (API stock solution in 2-MeTHF) and in data set [1] (API stock solution in CH3CN) was “Failed to yield solid” throughout.
As for `O=C(O)C=CC(=O)O.O=c1cccc2n1CC1CNCC2C1` (stereo not shown) [Maleate, Cytisine Maleate], the “Assessment (salt preparation)” value in data set [1] (API stock solution in 2-MeTHF) and in data set [1] (API stock solution in CH3CN) was “Excellent salt profile” throughout.
For the compound `CC(=O)O` [Acetate], the “Assessment (salt preparation)” value is on record as “Secondary precipitations, unstable salt” in data set [1] (API stock solution in 2-MeTHF) and “Secondary precipitations, unstable salt” in data set [1] (API stock solution in CH3CN).
With `CS(=O)(=O)O.O=c1cccc2n1C[C@@H]1CNC[C@H]2C1` [Mesylate, Cytisine Mesylate], the “Assessment (salt preparation)” value in data set [1] (API stock solution in 2-MeTHF) and in data set [1] (API stock solution in CH3CN) was “Excellent salt profile” throughout. Further, the “Degradation rate of cytisine compared with free base form” value in data set [2] was “degraded at a substantially lower rate”.
As to Benzoate, the “Assessment (salt preparation)” value in data set [1] (API stock solution in 2-MeTHF) and in data set [1] (API stock solution in CH3CN) was “Failed to yield solid” throughout.
As to Ascorbate, the “Assessment (salt preparation)” value was “Secondary precipitations, unstable salt” in data set [1] (API stock solution in 2-MeTHF) and “Secondary precipitations, unstable salt” in data set [1] (API stock solution in CH3CN).
